Assay [1] is filed under the species Oryctolagus cuniculus.
Description: (§1) Tested for level of sulfonamide in red blood cells of albino rabbits at 120 min post-administration of 50 mg/kg sulfonamides
The species named for assay [2] is Oryctolagus cuniculus. The source holds these as a separate data set.
Description: as §1
The target of assay [3] is Carbonic anhydrase 1 (Homo sapiens, UniProt P00915).
Description: Inhibitory activity against human recombinant carbonic anhydrase I (CA1)
Assay [4] deals with Carbonic anhydrase 2 (Homo sapiens, UniProt P00918).
Description: Inhibitory activity against human recombinant carbonic anhydrase II (CA2)
The target in assay [5] is T1, Carbonic anhydrase 4 (Bos taurus, UniProt Q95323).
T1 sequence (Q95323 whole entry): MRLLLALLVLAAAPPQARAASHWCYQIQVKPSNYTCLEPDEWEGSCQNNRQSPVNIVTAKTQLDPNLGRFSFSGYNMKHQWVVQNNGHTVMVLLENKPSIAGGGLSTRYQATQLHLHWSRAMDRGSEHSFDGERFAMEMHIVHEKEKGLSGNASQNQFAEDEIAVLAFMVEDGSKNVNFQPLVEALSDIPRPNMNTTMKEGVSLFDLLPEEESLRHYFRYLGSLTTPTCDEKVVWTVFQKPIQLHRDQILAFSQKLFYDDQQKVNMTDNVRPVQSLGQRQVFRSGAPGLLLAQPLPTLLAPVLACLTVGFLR
Description: Inhibitory activity against bovine carbonic anhydrase IV (CA4), obtained from bovine lung microsomes

Assay [6] is filed under the species Oryctolagus cuniculus. This is another data set of the same source.
Description: Tested for level of sulfonamide in red blood cells of albino rabbits at 60 min post-administration of 50 mg/kg sulfonamides

Where “and” joins values, the source holds several entries; their conditions need not be identical. Equal values may be shown once.

Chain of Carbonic anhydrase 1 (P00915 whole entry): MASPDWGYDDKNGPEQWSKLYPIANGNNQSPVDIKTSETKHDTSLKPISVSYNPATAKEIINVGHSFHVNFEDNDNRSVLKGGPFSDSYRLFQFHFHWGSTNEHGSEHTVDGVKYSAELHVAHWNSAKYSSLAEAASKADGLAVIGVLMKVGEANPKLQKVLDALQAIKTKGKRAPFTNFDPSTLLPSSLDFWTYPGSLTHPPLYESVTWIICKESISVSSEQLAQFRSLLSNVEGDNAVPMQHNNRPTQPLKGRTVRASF

The term Ki denotes the dissociation constant of the complex between target and ligand, obtained from inhibition or displacement. The low end stands for higher affinity, the high end for lower affinity. In the case of `C[C@H](CCC(=O)Oc1ccc2nc(S(N)(=O)=O)sc2c1)[C@H]1CC[C@H]2[C@@H]3C(=O)C[C@@H]4CC(=O)CC[C@]4(C)[C@H]3CC(=O)[C@]12C`, the Level was 163 µM in assay [1]; 158 µM in assay [2]; 156 µM and 159 µM in assay [6]. Also, the Ki amounted to 0.033 µM in assay [3], 0.0006 µM in assay [4] and 0.005 µM in assay [5].
On to `C[C@H](CCC(=O)NCCC(=O)Nc1nnc(S(N)(=O)=O)s1)[C@H]1CC[C@H]2[C@@H]3[C@H](O)C[C@@H]4C[C@H](O)CC[C@]4(C)[C@H]3CC[C@]12C`, for which the figures for the Ki in assay [3], in assay [4] and in assay [5] were 0.268 µM, 0.002 µM and 0.045 µM, respectively.
The corresponding values for `C[C@H](CCC(=O)/N=c1\sc(S(N)(=O)=O)nn1C)[C@H]1CC[C@H]2[C@@H]3C(=O)C[C@@H]4CC(=O)CC[C@]4(C)[C@H]3CC(=O)[C@]12C` are 0.029 µM, 0.001 µM and 0.008 µM.
`C[C@H](CCC(=O)Oc1ccc2nc(S(N)(=O)=O)sc2c1)[C@H]1CC[C@H]2[C@@H]3CC[C@@H]4C[C@H](O)CC[C@]4(C)[C@H]3C[C@H](O)[C@]12C`: the Ki is 0.039 µM in assay [3], 0.0048 µM in assay [4] and 0.009 µM in assay [5].
With `C[C@H](CCC(=O)Nc1ccccc1S(N)(=O)=O)[C@H]1CC[C@H]2[C@@H]3[C@@H](O)C[C@@H]4C[C@H](O)CC[C@]4(C)[C@H]3CC[C@]12C`, the Ki in assay [3] is 8.4 µM; in assay [4], 0.18 µM; in assay [5], 0.5 µM.
For `C[C@H](CCC(=O)Nc1ccc(S(N)(=O)=O)cc1I)[C@H]1CC[C@H]2[C@@H]3C(=O)C[C@@H]4CC(=O)CC[C@]4(C)[C@H]3CC(=O)[C@]12C`, the results for the Ki in assay [3], in assay [4] and in assay [5] were 0.061 µM, 0.01 µM and 0.019 µM, respectively.
Take `C[C@H](CCC(=O)Nc1nnc(S(N)(=O)=O)s1)[C@H]1CC[C@H]2[C@@H]3C(=O)C[C@@H]4CC(=O)CC[C@]4(C)[C@H]3CC(=O)[C@]12C`: the Level was 159 µM in assay [1]; 151 µM in assay [2]; 155 µM and 162 µM in assay [6]. The Ki in assay [3] amounted to 0.041 µM; in assay [4] it was 0.0005 µM; in assay [5] it was 0.009 µM.
Consider `C[C@H](CCC(=O)Nc1ccc(S(N)(=O)=O)cc1Br)[C@H]1CC[C@H]2[C@@H]3[C@H](O)C[C@@H]4C[C@H](O)CC[C@]4(C)[C@H]3C[C@H](O)[C@]12C`, for which the Ki in assay [3] worked out at 0.6 µM; in assay [4], 0.035 µM; in assay [5] it was 0.06 µM.
The corresponding values for `C[C@H](CCC(=O)Nc1nnc(S(N)(=O)=O)s1)[C@H]1CC[C@H]2[C@@H]3[C@H](O)C[C@@H]4C[C@H](O)CC[C@]4(C)[C@H]3C[C@H](O)[C@]12C` are 0.42 µM, 0.05 µM and 0.205 µM.
`C[C@H](CCC(=O)Nc1ccccc1S(N)(=O)=O)[C@H]1CC[C@H]2[C@@H]3CC[C@@H]4C[C@H](O)CC[C@]4(C)[C@H]3C[C@H](O)[C@]12C`: the inhibition constant (Ki) came to 20.1 µM in assay [3], 0.28 µM in assay [4] and 0.975 µM in assay [5].
On to `C[C@H](CCC(=O)Oc1ccc2nc(S(N)(=O)=O)sc2c1)[C@H]1CC[C@H]2[C@@H]3[C@H](O)C[C@@H]4C[C@H](O)CC[C@]4(C)[C@H]3C[C@H](O)[C@]12C`, for which the Ki in assay [3] came out at 0.032 µM; in assay [4] it was 0.004 µM; in assay [5] it was 0.009 µM.
The corresponding values for `C[C@H](CCC(=O)Nc1c(S(N)(=O)=O)cc(S(N)(=O)=O)c(Cl)c1Cl)[C@H]1CC[C@H]2[C@@H]3CC[C@@H]4C[C@H](O)CC[C@]4(C)[C@H]3C[C@H](O)[C@]12C` are 0.285 µM, 0.02 µM and 0.1 µM.
In the same order, the values of `C[C@H](CCC(=O)NCCC(=O)Nc1nnc(S(N)(=O)=O)s1)[C@H]1CC[C@H]2[C@@H]3[C@@H](O)C[C@@H]4C[C@H](O)CC[C@]4(C)[C@H]3CC[C@]12C` are 0.098 µM, 0.0013 µM and 0.011 µM.
For the compound `C[C@H](CCC(=O)/N=c1/sc(S(N)(=O)=O)nn1C)[C@H]1CC[C@H]2[C@@H]3[C@H](O)C[C@@H]4C[C@H](O)CC[C@]4(C)[C@H]3C[C@H](O)[C@]12C`, the Ki in assay [3] stood at 0.7 µM; in assay [4], 0.012 µM; in assay [5] it was 0.115 µM.
As for `C[C@H](CCC(=O)Nc1cccc(S(N)(=O)=O)c1)[C@H]1CC[C@H]2[C@@H]3CC[C@@H]4C[C@H](O)CC[C@]4(C)[C@H]3C[C@H](O)[C@]12C`, the Ki came out at 12.7 µM in assay [3], 0.23 µM in assay [4] and 0.98 µM in assay [5].
The corresponding values for `C[C@H](CCC(=O)Nc1ccc(S(N)(=O)=O)cc1)[C@H]1CC[C@H]2[C@@H]3CC[C@@H]4C[C@H](O)CC[C@]4(C)[C@H]3C[C@H](O)[C@]12C` are 12 µM, 0.21 µM and 0.355 µM.
The corresponding values for `C[C@H](CCC(=O)Oc1ccc2nc(S(N)(=O)=O)sc2c1)[C@H]1CC[C@H]2[C@@H]3[C@H](O)C[C@@H]4C[C@H](O)CC[C@]4(C)[C@H]3CC[C@]12C` are 0.047 µM, 0.0061 µM and 0.012 µM.
For the compound `C[C@H](CCC(=O)OCc1ccc(S(N)(=O)=O)cc1)[C@H]1CC[C@H]2[C@@H]3[C@@H](O)C[C@@H]4C[C@H](O)CC[C@]4(C)[C@H]3CC[C@]12C`, the Ki stood at 0.5 µM in assay [3], 0.075 µM in assay [4] and 0.245 µM in assay [5].
`C[C@H](CCC(=O)NCCc1ccc(S(N)(=O)=O)cc1)[C@H]1CC[C@H]2[C@@H]3[C@H](O)C[C@@H]4C[C@H](O)CC[C@]4(C)[C@H]3C[C@H](O)[C@]12C`: the inhibitory constant (Ki) in assay [3] is 3.4 µM; in assay [4], 0.086 µM; in assay [5], 0.22 µM.
Consider `C[C@H](CCC(=O)Nc1nnc(S(N)(=O)=O)s1)[C@H]1CC[C@H]2[C@@H]3[C@H](O)C[C@@H]4C[C@H](O)CC[C@]4(C)[C@H]3CC[C@]12C`, for which the Ki in assay [3] is 0.41 µM; in assay [4], 0.052 µM; in assay [5], 0.24 µM.
Turning to `C[C@H](CCC(=O)OCCOc1ccc2nc(S(N)(=O)=O)sc2c1)[C@H]1CC[C@H]2[C@@H]3[C@H](O)C[C@@H]4C[C@H](O)CC[C@]4(C)[C@H]3C[C@H](O)[C@]12C`, the Ki in assay [3] came to 0.039 µM; in assay [4], 0.003 µM; in assay [5] it was 0.01 µM.
Consider `C[C@H](CCC(=O)Nc1c(S(N)(=O)=O)cc(S(N)(=O)=O)c(Cl)c1Cl)[C@H]1CC[C@H]2[C@@H]3CC[C@@H]4C[C@H](O)CC[C@]4(C)[C@H]3CC[C@]12C`, for which the Ki stood at 0.13 µM in assay [3], 0.017 µM in assay [4] and 0.087 µM in assay [5].
Take `C[C@H](CCC(=O)Nc1c(S(N)(=O)=O)cc(S(N)(=O)=O)c(Cl)c1Cl)[C@H]1CC[C@H]2[C@@H]3[C@H](O)C[C@@H]4C[C@H](O)CC[C@]4(C)[C@H]3C[C@H](O)[C@]12C`: the values for the Ki in assay [3], in assay [4] and in assay [5] were 0.4 µM, 0.021 µM and 0.097 µM, respectively.
Turning to `C[C@H](CCC(=O)Nc1cc(Cl)c(S(N)(=O)=O)cc1S(N)(=O)=O)[C@H]1CC[C@H]2[C@@H]3C(=O)C[C@@H]4CC(=O)CC[C@]4(C)[C@H]3CC(=O)[C@]12C`, the Ki in assay [3] is 0.077 µM; in assay [4] it was 0.011 µM; in assay [5] it was 0.05 µM.
As to `C[C@H](CCC(=O)Nc1ccc(S(N)(=O)=O)cc1Cl)[C@H]1CC[C@H]2[C@@H]3[C@@H](O)C[C@@H]4C[C@H](O)CC[C@]4(C)[C@H]3CC[C@]12C`, the Ki in assay [3] amounted to 0.19 µM; in assay [4], 0.017 µM; in assay [5], 0.03 µM.
As to `C[C@H](CCC(=O)NNc1ccc(S(N)(=O)=O)cc1)[C@H]1CC[C@H]2[C@@H]3C(=O)C[C@@H]4CC(=O)CC[C@]4(C)[C@H]3CC(=O)[C@]12C`, the Ki came to 12.8 µM in assay [3], 0.26 µM in assay [4] and 0.55 µM in assay [5].
Turning to `C[C@H](CCC(=O)Nc1cc(Cl)c(S(N)(=O)=O)cc1S(N)(=O)=O)[C@H]1CC[C@H]2[C@@H]3[C@H](O)C[C@@H]4C[C@H](O)CC[C@]4(C)[C@H]3CC[C@]12C`, the Ki stood at 0.3 µM in assay [3], 0.062 µM in assay [4] and 0.143 µM in assay [5].
`C[C@H](CCC(=O)OCCc1ccc(S(N)(=O)=O)cc1)[C@H]1CC[C@H]2[C@@H]3[C@H](O)C[C@@H]4C[C@H](O)CC[C@]4(C)[C@H]3CC[C@]12C`: the Ki in assay [3] is 1.1 µM; in assay [4], 0.09 µM; in assay [5], 0.32 µM.
Turning to `C[C@H](CCC(=O)Nc1ccc(S(N)(=O)=O)cc1Br)[C@H]1CC[C@H]2[C@@H]3CC[C@@H]4C[C@H](O)CC[C@]4(C)[C@H]3CC[C@]12C`, the Ki was 0.12 µM in assay [3], 0.021 µM in assay [4] and 0.053 µM in assay [5].

The record behind these values is ChEMBL document CHEMBL1135136, “Carbonic anhydrase inhibitors. Preparation of potent sulfonamides inhibitors incorporating bile acid tails” (Bioorg Med Chem Lett, 2002).
